Test results: US7422854B1, “Cholesterol reduction signature” (priority 2002, dated 2008)

How the values were obtained:
[1] = test system: male Sprague-Dawley rats; test: Cholesterol Lowering Index: total blood cholesterol (clinical chemistry) in treated versus vehicle-treated rats; type: in vivo, rat; details: for Chol index (fold reduction) / Cholesterol Index (fold reduction): male rats; for Chol index (fold reduction): vs vehicle; for reduction in cholesterol: extremes of the twenty treatments of table 1, treated versus untreated rats; for Cholesterol Index (fold reduction): Table 4
Source text: Compound dosing was based on the acute dose LD50s recorded in published reference or literature sources. […] The MTD (maximum tolerated dose) was then selected as the dose at which the animals […] 5-10% body weight during the 5-day range finding study. […] In addition, the clinical observations must show no or mild clinical signs during the whole of the range-finding study. At the next highest dose, signs and symptoms of adverse effects and exceeding those of the MTD should be seen to occur. Should these criteria not be met, the range-finding study is repeated using a modified dose range.
(§1) After determination of the MTD and FED for a compound, each compound was dissolved in a vehicle for administration on day 1 of the study (additional daily doses were stored as frozen aliquots from this initial formulation). Each compound was administered to three individual male Sprague-Dawley rats for each of the two doses (MTD and FED) for one of four different times (0.25 day, 1 day, 3 days, and 5 days), yielding a total of up to 24 animals per compound study. Vehicle choice was based on solubility of the compound, effect of food on adsorption, and the vehicles used in the literature reports examined during the FED selection investigations, described above. Generally, the route and vehicle in which the FED was defined are used. When there was a choice of routes and vehicles, oral routes were chosen over injection routes. Many compounds, especially oncolytics, are only administerable intravenously. In such cases, the compound was administered as an intravenous formulation into the tail vein. Orally administered compounds were given dissolved in either water, 1% carboxymethycellulose (CMC) or corn oil. Intravenously and intraperitoneally administered compounds were given in 0.9% saline. Subcutaneously administered compounds were given in corn oil. Animal body weights were determined at 1 day and, where appropriate, at 4 days, before necropsy, and clinical observations were made on a daily basis. Control animals were dosed with vehicle only. Three male animals were used for each dose and time combination used for the compound treatment.
(§2) Tissue harvest and handling: After the allocated treatment time, the tissues from the animals were harvested. […] All the tissues collected were divided to provide samples for histopathological analyses, and the remainder of each tissue was then snap-frozen. […] The following blood constituents were measured: Blood Urea Nitrogen (BUN), Creatinine (CRE), Glucose (GLU), Alanine Transaminase (ALT), Aspartate Aminotrans-ferase (AST), Alkaline Phosphatase (ALP), Total Bilirubin (TBI), Sodium (SOD), Potassium (POT), Chloride (CHL), Phosphorus (PHO), Total Protein (TPR), Albumin (ALB), Cholesterol (CHO), Creatine Phosphokinase (CPK), Lactate Dehydrogenase (LDH), Carbon Dioxide (CO2), Uric Acid (UA), and Lipase. […] The parameters were measured using a Baker 9000 blood cell analysis instrument according to the manufactures instructions. The following blood constituents were measured: Leukocyte count (WBC), Differential Leukocyte counts, Erythrocyte count (RBC), Hemoglobin concentration (HGB), Hematocrit (HCT), Mean Corpuscular Volume (MCV), Mean Corpuscular Hemoglobin (MCH), Mean Corpuscular Hemoglobin Concentration (MCC), Thrombocyte Count (PLC). Histopathology: Histopathological analyses of hematoxylin and eosin-stained tissue sections were performed and peer-reviewed by board-certified (Diplomate, American College of Veterinary Pathologists) veterinary pathologists. Preparation of Enriched mRNA: Punch Biopsies were Taken from the Frozen Tissues and were completely homogenized before being processed using the MagNA Pure robot. (Roche Diagnostics Corp., Indianapolis, Ind.) in combination with the MagNA Pure LC RNA Isolation kit II (Roche Diagnostics Corp).

[2] = test system: livers of rats; test: Signature Projection Score (SPS): match of liver gene expression to the Cholesterol Reduction Signature; type: in vivo; details: rat liver, maximum of training treatments = 100
Method: as §1
as §2, with “Corp). The amount of lysis buffer was adjusted to allow 1 ml per 50 mg for liver tissue, or 1 ml per 80 mg for all other tissues. After complete homogenization and before loading of the samples into the 32-well MagNA Pure plate, the samples were syringed 5-6 times using a 20-gauge 3-ml syringe to ensure a smooth solution for robotic processing. Tissue sample processing was performed in duplicate wells (loading 150 μl of homogenized sample and 150 μl of additional lysis buffere to each well) of the MagNA Pure LC, which is programmed to extract mRNA using oligo-dT selection technology into a final elution volume of 100 μl. Poly A(+) RNA sample concentration was performed using a standard ethanol precipitation protocol in the presence of glycogen (50 μg/ml).” for “Corp).”

[3] = test system: rat; details: ovarectomized female rats; cited from earlier work

With CC[C@H](C)C(=O)O[C@H]1C[C@@H](C)C=C2C=C[C@H](C)[C@H](CC[C@@H]3C[C@@H](O)CC(=O)O3)[C@H]21 (relative stereo) [LOVASTATIN, (1S-(1α(R*),3α,7β,8β(2S*,4S*)-8αβ)-2-methylbutanoic acid 1,2,3,7,8,8a-hexahydro-3,7-dimethyl-8-(2-(tetrahydro-4-hydroxy-6-oxo-2H-pyran-2-yl)ethyl)-1-naphthalenyl ester] the “Chol index (fold reduction)” value ([1]; dose 450, time 5 days) was 2.39 fold reduction and the reduction in cholesterol [1] was 2 fold.
In the case of C[C@]12CC[C@@H]3c4ccc(OC(=O)c5ccccc5)cc4CC[C@H]3[C@@H]1CC[C@@H]2O [BETA-ESTRADIOL 3-BENZOATE], the SPS ([2]; dose 2 (mg/ml), time point 3 days) is reported as 46.4 and the “Cholesterol Index (fold reduction)” value ([1]; dose 2, time point 3 days) is reported as 2.0 fold reduction.
For C[C@]12CC[C@@H]3c4ccc(O)cc4CC[C@H]3[C@@H]1CC[C@@H]2O [BETA-ESTRADIOL, (17β)-estra-1,3,5(10)-triene-3,17-diol], the SPS ([2]; dose 150 (mg/ml), time point 1 day) was 53, the SPS ([2]; dose 150 (mg/ml), time point 3 days) was 63.4 and the SPS ([2]; dose 150 (mg/ml), time point 5 days) was 63.7. The “Cholesterol Index (fold reduction)” value ([1]; dose 150, time point 3 days) was 3.1 fold reduction, the “Cholesterol Index (fold reduction)” value ([1]; dose 150, time point 5 days) was 4.7 fold reduction and the “Chol index (fold reduction)” value ([1]; dose 150, time 3 days) was 3.21 fold reduction. For the same compound, the “Chol index (fold reduction)” value ([1]; dose 150, time 5 days) was 4.94 fold reduction.
For CCOC(=O)C(C)(C)Oc1ccc(Cl)cc1 [CLOFIBRATE, 2-(4-chlorophenoxy)-2-methylpropanoic acid ethyl ester], the “Chol index (fold reduction)” value ([1]; dose 500, time 3 days) was 2.43 fold reduction.
With C[C@@H]1C[C@H]2[C@@H]3CCC4=CC(=O)C=C[C@]4(C)[C@@]3(F)[C@@H](O)C[C@]2(C)[C@@]1(O)C(=O)CO [DEXAMETHASONE] the SPS ([2]; dose 1 (mg/ml), time point 3 days) was 49.5 and the “Cholesterol Index (fold reduction)” value ([1]; dose 1, time point 3 days) was 0.9 fold reduction.
With CC/C(=C(/CC)c1ccc(O)cc1)c1ccc(O)cc1 [DIETHYLSTILBESTROL, 3,4-bis-(4-hydroxyphenyl)-3-hexene] the SPS ([2]; dose 2.8 (mg/ml), time point 1 day) was 57.3, the SPS ([2]; dose 2.8 (mg/ml), time point 3 days) was 71.2 and the SPS ([2]; dose 2.8 (mg/ml), time point 5 days) was 80.9. For the same compound, the SPS ([2]; dose 300 (mg/ml), time point 1 day) was 59, the SPS ([2]; dose 300 (mg/ml), time point 3 days) was 83.3 and the SPS ([2]; dose 300 (mg/ml), time point 5 days) was 91.1. For the same compound, the “Cholesterol Index (fold reduction)” value ([1]; dose 2.8, time point 3 days) was 3.0 fold reduction, the “Cholesterol Index (fold reduction)” value ([1]; dose 2.8, time point 5 days) was 3.4 fold reduction and the “Chol index (fold reduction)” value ([1]; dose 2.8, time 3 days) was 3.10 fold reduction. The “Chol index (fold reduction)” value ([1]; dose 2.8, time 5 days) was 3.56 fold reduction.
C[C@]12CC[C@@H]3c4ccc(O)cc4CC[C@H]3[C@@H]1C[C@@H](O)[C@@H]2O [ESTRIOL, (16α, 17β)-estra-1,3,5(10)-triene-3,16,17-triol] showed an SPS ([2]; dose 313 (mg/ml), time point 1 day) of 51.5, an SPS ([2]; dose 313 (mg/ml), time point 3 days) of 65.1 and an SPS ([2]; dose 313 (mg/ml), time point 5 days) of 83.4. The “Cholesterol Index (fold reduction)” value ([1]; dose 313, time point 3 days) was 3.2 fold reduction, the “Cholesterol Index (fold reduction)” value ([1]; dose 313, time point 5 days) was 20.9 fold reduction and the “Chol index (fold reduction)” value ([1]; dose 313, time 3 days) was 3.30 fold reduction. For the same compound, the “Chol index (fold reduction)” value ([1]; dose 313, time 5 days) was 20.28 fold reduction and the reduction in cholesterol [1] was 20 fold.
In the case of OC(Cn1cncn1)(Cn1cncn1)c1ccc(F)cc1F [FLUCONAZOLE, α-(2,4-difluorophenyl)-α-(1H-1,2,4-triazol-1-ylmethyl)-1H-1,2,4-triazole-1-ethanol], the SPS ([2]; dose 394 (mg/ml), time point 5 days) is reported as 59.7, the “Cholesterol Index (fold reduction)” value ([1]; dose 394, time point 5 days) is reported as 3.7 fold reduction and the “Chol index (fold reduction)” value ([1]; dose 394, time 5 days) is reported as 3.94 fold reduction.
C#C[C@]1(OC(C)=O)CC[C@H]2[C@@H]3CCC4=CC(=O)CC[C@@H]4[C@H]3CC[C@@]21C [NORETHINDRONE ACETATE] gave an SPS ([2]; dose 125 (mg/ml), time point 1 day) of 58.8, an SPS ([2]; dose 125 (mg/ml), time point 3 days) of 81.6 and an SPS ([2]; dose 125 (mg/ml), time point 5 days) of 80.7. The “Cholesterol Index (fold reduction)” value ([1]; dose 125, time point 3 days) was 2.0 fold reduction, the “Cholesterol Index (fold reduction)” value ([1]; dose 125, time point 5 days) was 4.0 fold reduction and the “Chol index (fold reduction)” value ([1]; dose 125, time 5 days) was 4.07 fold reduction.
For C#C[C@]1(O)CC[C@H]2[C@@H]3CCC4=CC(=O)CC[C@@H]4[C@H]3CC[C@@]21C [NORETHINDRONE, (17α)-17-hydroxy-19-norpregn-4-en-20-yn-3-one], the “Cholesterol Index (fold reduction)” value ([1]; dose 375, time point 3 days) was 3.5 fold reduction, the “Chol index (fold reduction)” value ([1]; dose 375, time 3 days) was 3.56 fold reduction and the “Chol index (fold reduction)” value ([1]; dose 375, time 5 days) was 3.06 fold reduction.
For O=C(c1ccc(OCCN2CCCCC2)cc1)c1c(-c2ccc(O)cc2)sc2cc(O)ccc12 [RALOXIFENE, [6-hydroxy-2-(4-hydroxyphenyl)-3-(4-[2-piperidin-1-yl)ethoxy]benzoyl)-benzo[b]thiene], the “Chol index (fold reduction)” value ([1]; dose 6.5, time 5 days) is given as 2.61 fold reduction and the effect on cholesterol [3] is given as “lower cholesterol”.
